Measured values published in PubChem BioAssay (NCI).
“And” between values parts separate entries of the source, which are not always exact repeats. Equal values may be shown once.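 Briefly, cells in 96-well plates were exposed to five compound concentrations for 48 h, and endpoints were estimated by linear interpolation. Here, GI50 denotes the concentration required for 50% inhibition of growth. TGI marks complete inhibition of growth.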

How the values were obtained:
Assay in all cases: DTP human tumour cell line panel, 48 h
A498 renal = system: A498 renal
ACHN renal = system: ACHN renal
HCT-15 colon = system: HCT-15 colon
HL-60(TB) leukemia = system: HL-60(TB) leukemia
MOLT-4 leukemia = system: MOLT-4 leukemia
NCI-H460 lung = system: NCI-H460 lung
NCI/ADR-RES ovarian = system: NCI/ADR-RES ovarian
SK-MEL-5 melanoma = system: SK-MEL-5 melanoma
SR leukemia = system: SR leukemia
UACC-62 melanoma = system: UACC-62 melanoma

SMILES	TGI (A498 renal) [µM]	TGI (ACHN renal) [µM]	TGI (HCT-15 colon) [µM]	TGI (HL-60(TB) leukemia)	TGI (MOLT-4 leukemia)	TGI (NCI-H460 lung) [µM]	TGI (NCI/ADR-RES ovarian)	TGI (SK-MEL-5 melanoma)	TGI (SR leukemia) [µM]	TGI (UACC-62 melanoma)	GI50 (A498 renal) [µM]	GI50 (HCT-15 colon) [µM]	GI50 (HL-60(TB) leukemia)	GI50 (MOLT-4 leukemia) [µM]	GI50 (NCI/ADR-RES ovarian) [µM]	GI50 (SK-MEL-5 melanoma) [µM]	GI50 (UACC-62 melanoma) [µM]
CCOC(=O)NC(Nc1ccc(F)cc1F)(C(F)(F)F)C(F)(F)F	> 100	> 100	> 100	> 100 µM	> 100 µM	> 100	> 100 µM	> 100 µM	> 100	> 100 µM	–	–	–	–	–	–	–
COc1ccc2[nH]c3ccc4cc[n+](CCN5CCC(C6CCN(CC[n+]7ccc8ccc9[nH]c%10ccc(OC)cc%10c9c8c7)CC6)CC5)cc4c3c2c1	> 53.8	50	–	50 µM and 8.43 µM	50 µM and > 100 µM	–	50 µM and > 46.4 µM	41.3 µM and 60.7 µM	50	50 µM and 17.7 µM	> 50	0.266	4.47 µM and 0.899 µM	0.209	35.2	6.7	31
Nc1cc(OCC2CCCCC2)nc(N)n1	–	> 100	> 100	> 100 µM	> 100 µM	> 100	> 100 µM	> 100 µM	–	> 100 µM	–	–	–	–	–	–	–
N=c1oc2cc(O)ccc2cc1C(=O)Nc1ccccn1	98.2	> 100	> 100	> 100 µM	> 100 µM	> 100	> 100 µM	> 100 µM	–	> 100 µM	–	–	–	–	–	–	–
CN(C)CCNC(=O)c1cccc2c1C(=O)c1ccccc1C2=O	> 100	–	> 84.2	57.8 µM	> 71.7 µM	85.8	75.5 µM	40.2 µM	–	47.9 µM	–	–	–	–	–	–	–
CN(C)N1C(=O)C(=O)N(c2cccc3ccccc23)C1=O	> 10	> 10	> 10	> 10 µM	> 10 µM	> 10	> 10 µM	> 10 µM	> 10	> 10 µM	–	–	–	–	–	–	–
CC(C)(C)OC(=O)NC(CSCc1ccc(C(=O)c2ccccc2)cc1)C(=O)N1CCN(CCCCN2c3ccccc3Sc3cc(N=[N+]=[N-])ccc32)CC1 (stereo not given)	> 100	> 100	> 100	> 100 µM	> 100 µM	> 100	> 100 µM	> 100 µM	–	> 100 µM	–	–	–	–	–	–	–
COC(=O)c1ccc(OCCn2nnc(C(=O)NN)c2C(=O)NN)cc1	–	> 100	> 100	> 100 µM	> 100 µM	> 100	> 100 µM	> 100 µM	> 100	–	–	–	–	–	–	–	–
CC(C)CC1c2[nH]c3ccccc3c2C[C@H]2C(=O)NC(Cc3c[nH]c4ccccc34)C(=O)N12 (stereo not given in full)	33.4	60	47.2	40.9 µM	39.1 µM	–	56.4 µM	26 µM	45.5	36 µM	–	–	–	–	–	–	–
COP(=O)(OC)C(N)Cc1c[nH]c2ccccc12 (stereo not given)	> 100	> 100	> 100	–	> 100 µM	> 100	> 100 µM	> 100 µM	–	–	–	–	–	–	–	–	–
COc1ccc2c(c1)/C(=C\c1c(Cl)nc3n1CCS3)C(=O)N2	33.2	> 100	62.1	17.2 µM	> 100 µM	18.9	88.3 µM	17.2 µM	–	16.3 µM	–	–	–	–	–	–	–
Cc1cn(S(=O)(=O)c2ccccc2)c2c(OCc3ccccc3)cc([N+](=O)[O-])cc12	> 100	> 100	> 100	> 100 µM	> 100 µM	> 100	> 100 µM	> 100 µM	–	> 100 µM	–	–	–	–	–	–	–
O=C(Cn1c2ccc(Br)cc2c2nc3ccccc3nc21)NCc1ccccc1	> 100	41.7	> 100	–	> 100 µM	> 100	> 100 µM	> 100 µM	> 100	93.4 µM	–	–	–	–	–	–	–
O=c1c(NCc2ccccc2)c(C2(c3ccccc3F)SCCCS2)c1=O	> 100	> 100	> 100	> 100 µM	> 100 µM	> 100	> 100 µM	> 100 µM	–	> 100 µM	–	–	–	–	–	–	–
COc1ccc(-c2cc(-c3ccc(C)cc3)n(C3OC(COC(C)=O)C(OC(C)=O)C(OC(C)=O)C3OC(C)=O)c(=S)c2C#N)cc1 (stereo not given)	–	> 100	> 100	> 100 µM	> 100 µM	> 100	> 100 µM	> 100 µM	> 100	> 100 µM	–	–	–	–	–	–	–
CC1=NNC(=O)C1C1(C(=O)O)CC(c2c[nH]c3ccccc23)=NC(=S)N1 (stereo not given)	> 100	> 100	> 100	90.1 µM	52.7 µM	50.1	> 100 µM	27.5 µM	–	> 100 µM	–	–	–	–	–	–	–
CC(=O)OCC1OC(n2c(C)c(C)cc(C#N)c2=S)C(OC(C)=O)C(OC(C)=O)C1OC(C)=O (stereo not given)	> 100	> 100	> 100	> 100 µM	> 100 µM	> 100	–	> 100 µM	> 100	> 100 µM	–	–	–	–	–	–	–
COc1ccc(C2CC(c3sc(Nc4ccc(C)cc4)nc3C)=NN2)cc1 (stereo not given)	30.7	–	39.1	24.6 µM	32.7 µM	30.3	32.4 µM	30.1 µM	–	> 55.3 µM	–	–	–	–	–	–	–
CCC(C)C(Nc1c2ccccc2nc2c(C(=O)NCCN(C)C)cccc12)C(=O)O (stereo not given)	42.4	> 100	> 100	–	> 100 µM	–	77.6 µM	> 100 µM	> 100	47.4 µM	–	–	–	–	–	–	–
O=C(COc1cc(=O)oc2ccccc12)c1ccccc1	> 100	36.4	> 100	> 100 µM	> 100 µM	> 100	–	> 100 µM	> 100	44.1 µM	–	–	–	–	–	–	–
CCOC(=O)/C(C(N)=O)=C(\O)C(=O)/C=C(\O)c1ccc(Cl)cc1	> 100	39.7	34.8	–	40.6 µM	31.5	45 µM	36.8 µM	44.5	43.1 µM	–	–	–	–	–	–	–
